Here are results for nine compounds from patent publication US10870652B2, “Compounds and methods for modulating bruton's tyrosine kinase” (CORVUS PHARMACEUTICALS, INC., priority 2016, dated 2020).

Common to all, as to type: biochemical
In one assay the target is BTK (Homo sapiens, UniProt Q06187). The experiment in a line: BTK IC50 kinase inhibition assay.
A further assay addresses T1, TXK (Homo sapiens, UniProt P42681).
T1 sequence (P42681 1-527): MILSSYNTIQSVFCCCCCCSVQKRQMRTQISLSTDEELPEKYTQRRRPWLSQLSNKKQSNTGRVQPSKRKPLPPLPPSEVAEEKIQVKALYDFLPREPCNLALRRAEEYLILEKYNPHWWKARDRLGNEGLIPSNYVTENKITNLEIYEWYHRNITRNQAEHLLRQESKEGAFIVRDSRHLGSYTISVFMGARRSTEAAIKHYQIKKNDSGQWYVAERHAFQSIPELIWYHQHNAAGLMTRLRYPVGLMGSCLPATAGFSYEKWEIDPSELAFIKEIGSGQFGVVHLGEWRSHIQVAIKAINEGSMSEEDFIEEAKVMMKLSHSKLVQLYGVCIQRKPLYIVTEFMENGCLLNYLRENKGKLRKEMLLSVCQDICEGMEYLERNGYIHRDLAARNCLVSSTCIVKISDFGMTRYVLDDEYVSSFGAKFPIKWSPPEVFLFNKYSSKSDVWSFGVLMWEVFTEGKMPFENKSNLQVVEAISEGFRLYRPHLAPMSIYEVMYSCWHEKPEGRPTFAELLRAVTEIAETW
The experiment in a line: TXK IC50 kinase inhibition assay.

For a further assay, the target named is T2, JAK3 (Homo sapiens, UniProt P52333).
T2 sequence (P52333 1-1124): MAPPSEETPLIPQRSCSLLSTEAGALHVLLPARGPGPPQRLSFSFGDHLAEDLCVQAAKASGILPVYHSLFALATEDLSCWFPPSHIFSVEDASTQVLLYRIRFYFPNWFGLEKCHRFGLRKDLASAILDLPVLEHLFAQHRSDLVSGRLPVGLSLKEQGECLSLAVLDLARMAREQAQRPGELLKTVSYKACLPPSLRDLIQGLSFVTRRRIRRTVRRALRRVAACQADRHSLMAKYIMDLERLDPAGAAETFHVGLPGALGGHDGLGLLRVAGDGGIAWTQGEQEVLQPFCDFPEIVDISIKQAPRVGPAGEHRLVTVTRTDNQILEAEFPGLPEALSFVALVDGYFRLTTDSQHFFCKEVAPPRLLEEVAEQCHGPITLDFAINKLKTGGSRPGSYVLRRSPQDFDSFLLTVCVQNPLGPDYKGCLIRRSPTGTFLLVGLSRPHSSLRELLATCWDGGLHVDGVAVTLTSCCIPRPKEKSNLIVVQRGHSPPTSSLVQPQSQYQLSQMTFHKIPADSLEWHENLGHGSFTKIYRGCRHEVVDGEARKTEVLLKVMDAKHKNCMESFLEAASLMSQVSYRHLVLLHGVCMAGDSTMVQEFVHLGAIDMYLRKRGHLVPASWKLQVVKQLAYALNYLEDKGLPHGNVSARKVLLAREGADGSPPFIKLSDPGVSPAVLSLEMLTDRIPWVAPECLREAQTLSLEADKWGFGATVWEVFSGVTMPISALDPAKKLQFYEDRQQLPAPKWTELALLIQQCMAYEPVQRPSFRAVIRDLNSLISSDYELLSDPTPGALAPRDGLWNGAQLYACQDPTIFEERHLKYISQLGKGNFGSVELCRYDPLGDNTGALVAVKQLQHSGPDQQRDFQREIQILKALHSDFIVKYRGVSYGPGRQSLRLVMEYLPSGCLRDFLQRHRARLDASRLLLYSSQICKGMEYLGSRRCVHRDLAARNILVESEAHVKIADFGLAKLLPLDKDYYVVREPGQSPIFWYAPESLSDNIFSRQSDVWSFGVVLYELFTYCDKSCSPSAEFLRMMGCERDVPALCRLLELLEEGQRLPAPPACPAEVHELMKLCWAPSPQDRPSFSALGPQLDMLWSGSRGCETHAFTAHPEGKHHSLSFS
As to the kind of experiment: JAK3 IC50 kinase inhibition assay.

A further assay addresses T3, ITK (Homo sapiens, UniProt Q08881).
T3 sequence (Q08881 1-620): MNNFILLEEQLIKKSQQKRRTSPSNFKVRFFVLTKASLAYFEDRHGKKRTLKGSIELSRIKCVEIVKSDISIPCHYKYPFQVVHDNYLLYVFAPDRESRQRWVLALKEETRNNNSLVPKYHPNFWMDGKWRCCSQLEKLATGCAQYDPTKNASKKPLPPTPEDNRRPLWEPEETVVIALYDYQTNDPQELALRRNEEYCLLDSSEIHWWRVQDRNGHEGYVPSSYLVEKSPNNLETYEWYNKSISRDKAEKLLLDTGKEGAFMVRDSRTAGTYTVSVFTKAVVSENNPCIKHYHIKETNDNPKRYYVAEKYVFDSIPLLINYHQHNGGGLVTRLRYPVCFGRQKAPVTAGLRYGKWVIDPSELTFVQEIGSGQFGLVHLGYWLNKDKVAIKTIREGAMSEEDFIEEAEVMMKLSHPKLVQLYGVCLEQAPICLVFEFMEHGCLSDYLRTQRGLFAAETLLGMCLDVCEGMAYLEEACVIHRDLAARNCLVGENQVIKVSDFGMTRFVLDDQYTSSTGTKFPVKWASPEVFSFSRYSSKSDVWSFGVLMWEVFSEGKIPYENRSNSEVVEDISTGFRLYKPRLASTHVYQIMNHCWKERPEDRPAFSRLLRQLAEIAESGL
The experiment in a line: ITK IC50 kinase inhibition assay.

Where only a bound is given, the exact number is not on record here.

BTK, sequence (Q06187 whole entry): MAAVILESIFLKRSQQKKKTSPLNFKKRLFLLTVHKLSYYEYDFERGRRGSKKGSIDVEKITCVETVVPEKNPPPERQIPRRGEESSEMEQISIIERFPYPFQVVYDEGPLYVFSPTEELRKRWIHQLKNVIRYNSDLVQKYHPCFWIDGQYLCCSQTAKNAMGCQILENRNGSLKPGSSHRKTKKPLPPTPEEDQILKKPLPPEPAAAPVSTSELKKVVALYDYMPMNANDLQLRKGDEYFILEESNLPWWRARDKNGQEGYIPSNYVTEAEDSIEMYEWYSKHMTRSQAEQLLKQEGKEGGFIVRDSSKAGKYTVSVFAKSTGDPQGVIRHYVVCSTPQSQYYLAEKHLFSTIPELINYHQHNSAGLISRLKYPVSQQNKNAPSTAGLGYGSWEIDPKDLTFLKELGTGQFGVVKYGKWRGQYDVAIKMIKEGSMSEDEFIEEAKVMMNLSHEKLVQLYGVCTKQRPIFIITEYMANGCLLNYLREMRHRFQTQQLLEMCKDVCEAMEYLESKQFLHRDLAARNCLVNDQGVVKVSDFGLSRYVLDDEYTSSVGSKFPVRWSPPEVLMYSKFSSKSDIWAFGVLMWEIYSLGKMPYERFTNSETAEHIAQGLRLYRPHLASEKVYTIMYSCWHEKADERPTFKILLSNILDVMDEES

In the case of `C=CC(=O)N1CCC[C@H]1Cn1nc(-c2ccc(Oc3cccc(CC)c3)cc2)c2cncnc21` [Compound A46, (S)-1-(2-((3-(4-(3-ethylphenoxy)phenyl)-1H-pyrazolo[3,4-d]pyrimidin-1-yl)methyl)pyrrolidin-1-yl)prop-2-en-1-one], the IC50 on BTK was below 100 nM; against TXK, below 100 nM; on JAK3, above 500 nM; at ITK, above 500 nM.
`O=C(C#CC1CC1)N1CC2(CC(n3nc(-c4ccc(Oc5ccccc5)cc4)c4cncnc43)C2)C1` [Compound A78, 3-Cyclopropyl-1-(6-(3-(4-phenoxyphenyl)-1H-pyrazolo[3,4-d]pyrimidin-1-yl)-2-azaspiro[3.3]heptan-2-yl)prop-2-yn-1-one]: the IC50 against BTK is 100 to 500 nM; on TXK it was above 500 nM; at JAK3 it was above 500 nM; on ITK, above 500 nM.
For the compound `C=CC(=O)N1CC[C@H]1Cn1nc(-c2ccc(Oc3ccccc3)cc2)c2cncnc21` [Compound A51, (S)-1-(2-((3-(4-phenoxyphenyl)-1H-pyrazolo[3,4-d]pyrimidin-1-yl)methyl)azetidin-1-yl)prop-2-en-1-one], the IC50 on BTK was below 100 nM; at TXK it was below 100 nM; at JAK3 it was above 500 nM; against ITK, above 500 nM.
As to `C=CC(=O)N1CCC(Cn2nc(-c3ccc(Oc4ccccc4)cc3)c3cncnc32)CC1` [Compound A34, 1-(4-((3-(4-phenoxyphenyl)-1H-pyrazolo[3,4-d]pyrimidin-1-yl)methyl)piperidin-1-yl)prop-2-en-1-one], the IC50 against BTK was below 100 nM; on TXK it was above 500 nM; on JAK3 it was above 500 nM; against ITK, above 500 nM.
As to `C=CC(=O)N1CCC[C@@H](n2nc(-c3ccc(Oc4ccccc4)c(C)c3)c3cncnc32)C1` [Compound A5, (R)-1-(3-(3-(3-methyl-4-phenoxyphenyl)-1H-pyrazolo[3,4-d]pyrimidin-1-yl)piperidin-1-yl)prop-2-en-1-one], the IC50 was below 100 nM on BTK, 100 to 500 nM against TXK, above 500 nM against JAK3 and above 500 nM against ITK.
As for `C=CC(=O)N1CC[C@@H](c2nc(-c3ccc(Oc4ccccc4)cc3)c3cnccn23)C1` [Compound A30, (R)-1-(3-(1-(4-phenoxyphenyl)imidazo[1,5-a]pyrazin-3-yl)pyrrolidin-1-yl)prop-2-en-1-one], the IC50 against BTK is below 100 nM; against TXK, below 100 nM; on JAK3, above 500 nM; at ITK, above 500 nM.
`C=CC(=O)N1CCC[C@@H](n2nc(-c3ccc(Oc4ccccc4)c(F)c3)c3cncnc32)C1` [Compound A3, (R)-1-(3-(3-(3-fluoro-4-phenoxyphenyl)-1H-pyrazolo[3,4-d]pyrimidin-1-yl)piperidin-1-yl)prop-2-en-1-one]: the IC50 at BTK is below 100 nM; against TXK it was below 100 nM; against JAK3 it was above 500 nM; against ITK it was above 500 nM.
With `C=CC(=O)N1CCC[C@@H](c2nc(-c3ccc(Oc4ccccc4)cc3)c3cnccn23)C1` [Compound A28, (R)-1-(3-(1-(4-phenoxyphenyl)imidazo[1,5-a]pyrazin-3-yl)piperidin-1-yl)prop-2-en-1-one], the IC50 is below 100 nM against BTK, below 100 nM on TXK, above 500 nM against JAK3 and above 500 nM against ITK.
In the case of `C=CC(=O)N1CCC2(CC1)CC(n1nc(-c3ccc(Oc4ccccc4)cc3)c3cncnc31)C2` [Compound A54, 1-(2-(3-(4-phenoxyphenyl)-1H-pyrazolo[3,4-d]pyrimidin-1-yl)-7-azaspiro[3.5]nonan-7-yl)prop-2-en-1-one], the IC50 at BTK, against TXK, on JAK3 and against ITK was above 500 nM throughout.

By IC50 is commonly meant the midpoint of a concentration-inhibition curve. Low values mean greater potency in that assay, high ones weaker potency in that assay.
